{"source": "patent US7345091B2", "about": "“Carotenoid ether analogs or derivatives for the inhibition and amelioration of disease” (Cardax Pharmaceuticals, Inc., priority 2002, dated 2008)", "conditions": "for behavior as radical quencher compared with non-esterified, free astaxanthin: formation of carotenoid radical cation", "source_text": "FIG. 27 and FIG. 28 depict the results of spectral analysis after flash photolysis of the formation of triplet and carotenoid cation radical states for non-esterified, free astaxanthin 2E and the diacid disuccinate astaxanthin derivative XV were obtained. Formation of the carotenoid cation radical is a measure of the potential biophysical behavior of the novel derivative as an antioxidant. If a derivative retains the antioxidant behavior of non-esterified, free astaxanthin, then all previously documented (i.e. literature precedent) therapeutic applications for astaxanthin can be reasonably assumed for the novel derivative, including at least singlet oxygen quenching, lipid peroxidation chain-breaking, and/or direct radical scavenging.\nIn this experiment, nitronaftalin (NN) was used as the photosensitizer. After irradiation, the excited sensitizer (NN*) forms a sensitizer triplet (^3NN). When ^3NN encounters a carotenoid, energy and electron transfer reactions with ^3NN take place. The resulting relatively stable ^3car and carotenoid cation radicals (car*^+) are detected by characteristic absorption bands. Non-polar solvents (e.g. hexane) favor the formation of ^3car, and more polar solvents (alcohols, water) favor the formation of the car.^+. The anion radical of the sensitizer (NN.^−) is not typically seen because of a low absorption coefficient.\nThe ^3car decays rather quickly. After 15 μs, half of the ^3car has disappeared, and after 50 μs, no ^3car is left.\nThe spectrum of asta 2E is nearly identical to that of astaCOOH XV. After 50 μs, the ^3car has disappeared. During this time frame, the car.^+ is stable. Negative and positive peaks in the absorption spectra for astaCOOH XV and asta 2E are superimposable.", "note": "Like-named read-outs stand apart in the source and are kept apart here.", "data": [{"smiles": "CC1=C(/C=C/C(C)=C/C=C/C(C)=C/C=C/C=C(C)/C=C/C=C(C)/C=C/C2=C(C)C(=O)C(OC(=O)CCC(=O)O)CC2(C)C)C(C)(C)CC(OC(=O)CCC(=O)O)C1=O", "note": "(centres unmarked) [XV, Succinic Acid mono-(4-{18-[4-(3-carboxy-propionyloxy)-2,6,6-trimethyl-3-oxo-cyclohex-1-enyl]-3,7,12,16-tetramethyl-octadeca-1,3,5,7,9,11,13,15,17-nonaenyl}-3,5,5-trimethyl-2-oxo-cyclohex-3-enyl) ester]", "values": [{"measurement": "stability of the carotenoid cation radical (car.+)", "value": "stable within this time frame"}, {"measurement": "time after which half of the 3car (carotenoid triplet) has disappeared", "setting": "acetonitrile, sensitizer NN", "value": 15, "unit": "μs"}, {"measurement": "time after which no 3car (carotenoid triplet) is left", "setting": "acetonitrile, sensitizer NN", "value": 50, "unit": "μs"}, {"measurement": "behavior as radical quencher compared with non-esterified, free astaxanthin", "setting": "acetonitrile, sensitizer NN", "value": "behaves like asta 2E"}, {"measurement": "behavior as radical quencher compared with non-esterified, free astaxanthin", "setting": "acetonitrile, sensitizer NN, listed as astaCOOH", "value": "identically to non-esterified, free racemic astaxanthin"}]}]}
